This is an account of results in US6358538B1, “Method for protecting plants from fungus” (priority 1999, dated 2002).

SMILES strings stand for the structures.

The assay concerns fungus.

Description: Various fertilizer quality nitrate salts have been used to test this effect, particularly potassium nitrate, ammonium nitrate, calcium nitrate, and sodium nitrate.

For `O=[N+]([O-])O` [nitrate ions, nitrate], the “concentration of nitrate ions in the solution found to be generally effective” value (at the sprinkler/mist head, plants in open ground plots, approx. 10 pounds nitrate salts per acre in approx. 1,000 gallons of water) is listed as 700 parts per million of water. Further, the “effect on germination of fungal spores and subsequent development” value (weak solutions, fungi on ground surface and plant surfaces, under certain conditions) is reported as “fungistatic effect”.
